The record followed here is PMC8661809 (Protein Science : A Publication of the Protein Society, 2021).

The target of this assay is CTD of SARS‐CoV‐2 N protein (Severe acute respiratory syndrome coronavirus 2, UniProt P0DTC9). Put plainly: biochemical. It is filed as binding.

The structures appear in SMILES notation.

As to `Nc1ncnc2c1ncn2[C@@H]1O[C@H](COP(=O)(O)OP(=O)(O)OP(=O)(O)O)[C@@H](O)[C@H]1O` [ATP], binding was characterised by a dissociation constant (Kd) of 1490 ± 280 µM.
